Common to all, as to format: cell-based, human
In one assay the test system is NCI-H522. Briefly: NCI-60 cell line screen (SRB), NCI-H522. The following applies: Homo sapiens. As for the experimental part: (§1) Drug sensitivity data are provided as GI50s (concentrations required to inhibit growth by 50%). The first row of the text file identifies cell lines, separated by tabs. Subsequent rows contain compound number, compound name, and GI50 for each cell line, each separated by a tab. […] For a typical screening experiment, cells are inoculated into 96 well microtiter plates in 100 μL at plating densities ranging from 5,000 to 40,000 cells/well depending on the doubling time of individual cell lines. After cell inoculation, the microtiter plates are incubated at 37° C., 5% CO2, 95% air and 100% relative humidity for 24 h prior to addition of experimental drugs. After 24 h, two plates of each cell line are fixed in situ with TCA, to represent a measurement of the cell population for each cell line at the time of drug addition (Tz). Experimental drugs are solubilized in dimethyl sulfoxide at 400-fold the desired final maximum test concentration and stored frozen prior to use. At the time of drug addition, an aliquot of frozen concentrate is thawed and diluted to twice the desired final maximum test concentration with complete medium containing 50 μg/ml gentamicin. Additional four, 10-fold or one-half log serial dilutions are made to provide a total of five drug concentrations plus control. Aliquots of 100 μl of these different drug dilutions are added to the appropriate microtiter wells already containing 100 μl of medium, resulting in the required final drug concentrations. Following drug addition, the plates are incubated for an additional 48 h at 37° C., 5% CO2, 95% air, and 100% relative humidity. For adherent cells, the assay is terminated by the addition of cold TCA. Cells are fixed in situ by the gentle addition of 50 μl of cold 50% (w/v) TCA (final concentration, 10% TCA) and incubated for 60 minutes at 4° C. The supernatant is discarded, and the plates are washed five times with tap water and air dried. Sulforhodamine B (SRB) solution (100 μl) at 0.4% (w/v) in 1% acetic acid is added to each well, and plates are incubated for 10 minutes at room temperature. After staining, unbound dye is removed by washing five times with 1% acetic acid and the plates are air dried. Bound stain is subsequently solubilized with 10 mM trizma base, and the absorbance is read on an automated plate reader at a wavelength of 515 nm. For suspension cells, the methodology is the same except that the assay is terminated by fixing settled cells at the bottom of the wells by gently adding 50 μl of 80% TCA (final concentration, 16% TCA). Using the seven absorbance measurements [time zero, (Tz), control growth, (C), and test growth in the presence of drug at the five concentration levels (Ti)], the percentage growth is calculated at each of the drug concentrations levels. […]

For another assay, the system named is MDA-MB-231/ATCC. Briefly: NCI-60 cell line screen (SRB), MDA-MB-231/ATCC. Conditions: Homo sapiens. As for the experimental part:
as §1

The subject of the next assay is RXF 393. Nature of the assay: NCI-60 cell line screen (SRB), RXF 393. The following applies: Homo sapiens. Here is the method:
as §1

The next assay relates to UACC-62. Nature of the assay: NCI-60 cell line screen (SRB), UACC-62. The following applies: Homo sapiens. Here is the method:
as §1

For the next assay, the system named is RPMI-8226. Briefly: NCI-60 cell line screen (SRB), RPMI-8226. The following applies: Homo sapiens. As for the experimental part:
as §1

The test system of the next assay is HOP-92. Nature of the assay: NCI-60 cell line screen (SRB), HOP-92. The following applies: Homo sapiens. Here is the method:
as §1

In another assay the test system is MALME-3M. Briefly: NCI-60 cell line screen (SRB), MALME-3M. The following applies: Homo sapiens. As for the experimental part:
as §1

The next assay deals with SW-620. Nature of the assay: NCI-60 cell line screen (SRB), SW-620. Conditions: Homo sapiens. Here is the method: as §1
For another assay, the system named is U-251. Briefly: NCI-60 cell line screen (SRB), U-251. Conditions: Homo sapiens. Here is the method:
as §1

A further assay has as its system SF-539. Nature of the assay: NCI-60 cell line screen (SRB), SF-539. Conditions: Homo sapiens. Here is the method: as §1
In another assay the test system is CCRF-CEM. Nature of the assay: NCI-60 cell line screen (SRB), CCRF-CEM. The following applies: Homo sapiens. Here is the method: as §1
The next assay deals with NCI-H226. Nature of the assay: NCI-60 cell line screen (SRB), NCI-H226. Conditions: Homo sapiens. Here is the method:
as §1

For the next assay, the system named is SNB-19. Briefly: NCI-60 cell line screen (SRB), SNB-19. Conditions: Homo sapiens. Here is the method:
as §1

The subject of another assay is SK-MEL-28. Nature of the assay: NCI-60 cell line screen (SRB), SK-MEL-28. The following applies: Homo sapiens. Here is the method: as §1
The test system of a further assay is OVCAR-4. Nature of the assay: NCI-60 cell line screen (SRB), OVCAR-4. The following applies: Homo sapiens. Here is the method:
as §1

The test system of the next assay is NCI/ADR-RES. Nature of the assay: NCI-60 cell line screen (SRB), NCI/ADR-RES. Conditions: Homo sapiens. As for the experimental part:
as §1

A further assay has as its system HCT-15. Nature of the assay: NCI-60 cell line screen (SRB), HCT-15. Conditions: Homo sapiens. As for the experimental part: as §1
In a further assay the test system is M14. Nature of the assay: NCI-60 cell line screen (SRB), M14. Conditions: Homo sapiens. As for the experimental part:
as §1

The test system of a further assay is Colon Cancer cell lines. Nature of the assay: NCI-60 cell line screen, Colon Cancer panel average. Conditions: Homo sapiens, read-out: GI50 Average. As for the experimental part: as §1
The test system of a further assay is HCC-2998. Nature of the assay: NCI-60 cell line screen (SRB), HCC-2998. The following applies: Homo sapiens. As for the experimental part: as §1
A further assay has as its system SK-MEL-2. Briefly: NCI-60 cell line screen (SRB), SK-MEL-2. Conditions: Homo sapiens. As for the experimental part: as §1
Assay [1] concerns Prostate Cancer cell lines. Briefly: NCI-60 cell line screen, Prostate Cancer panel average. Conditions: Homo sapiens, read-out: GI50 Average. As for the experimental part:
as §1

Another assay deals with Breast Cancer cell lines. Briefly: NCI-60 cell line screen, Breast Cancer panel average. The following applies: Homo sapiens, read-out: GI50 Average. As for the experimental part:
as §1

The values that follow come from US9828393B2, “Silylalkyloxyaryl compounds and methods for treating cancer” (THE REGENTS OF THE UNIVERSITY OF COLORADO, a body corporate, priority 2013, dated 2017).

Read-outs that look alike come from different tables or passages of the source.

A word on the GI50: it is the concentration giving 50% growth inhibition.

As to `CC1(C)CC(NC(=O)[C@H](Cc2ccc(OCc3c(Cl)cccc3Cl)cc2)NC(=O)c2ccc(OCCC[Si](C)(C)C)cc2)CC(C)(C)N1` [GH1501, N^α-{4-[3-(trimethylsilyl)propoxy]-benzoyl}-N-(2,2,6,6-tetramethylpiperidin-4-yl)-[O-(2,6-dichlorobenzyl)-L-tyrosinamide]], the GI50 was found to be 1820 nM in the assay with NCI-H522 (NCI-H522, 48 h); 881 nM in the assay with MDA-MB-231/ATCC (MDA-MB-231, 48 h); 1510 nM in the assay with RXF 393 (RXF 393, 48 h); 1490 nM in the assay with UACC-62 (UACC-62, 48 h); 1320 nM with RPMI-8226 (RPMI-8226, 48 h); 1170 nM in the assay on HOP-92 (HOP-92, 48 h). Besides, the GI50 stood at 1460 nM in the assay with MALME-3M (Malme-3M, 48 h); 313 nM in the assay on SW-620 (SW-620, 48 h); 230 nM in the assay with U-251 (U-251, 48 h); 1770 nM in the assay on SF-539 (SF-539, 48 h); 1200 nM in the assay with CCRF-CEM (48 h); 1770 nM in the assay on NCI-H226 (NCI-H226, 48 h). The GI50 with SNB-19 (SNB-19, 48 h) was 1720 nM; with SK-MEL-28 (SK-MEL-28, 48 h), 1500 nM; with OVCAR-4 (OVCAR-4, 48 h), 1620 nM; in the assay on NCI/ADR-RES (48 h), 1480 nM; with HCT-15 (HCT-15, 48 h), 357 nM; in the assay on M14 (M14, 48 h), 341 nM. Also, the GI50 is 395 nM in the assay on Colon Cancer cell lines; 1050 nM in the assay with HCC-2998 (HCC 2998, 48 h); 1770 nM with SK-MEL-2 (SK-MEL-2, 48 h); 834 nM in [1]; 1460 nM with Breast Cancer cell lines.
As to `CCCC[Si](C)(C)COc1ccc(C(=O)N[C@@H](Cc2ccc(OCc3c(Cl)cccc3Cl)cc2)C(=O)NC2CC(C)(C)NC(C)(C)C2)cc1` [GH1503, N^α-{4-[(butyldimethylsilyl)methoxy]-benzoyl}-N-(2,2,6,6-tetramethylpiperidin-4-yl)-[O-(2,6-dichlorobenzyl)-L-tyrosinamide]], the GI50 stood at 1970 nM in the assay with NCI-H522 (Non-Small Cell Lung Cancer, NCI-H522, 48 h drug incubation, read-out: GI50); 494 nM in the assay with MDA-MB-231/ATCC (Breast Cancer, MDA-MB-231/ATCC, 48 h drug incubation, read-out: GI50); 392 nM in the assay on RXF 393 (Renal Cancer, RXF 393, 48 h drug incubation, read-out: GI50); 1500 nM in the assay with UACC-62 (Melanoma, UACC-62, 48 h drug incubation, read-out: GI50); 893 nM with RPMI-8226 (Leukemia, RPMI-8226, 48 h drug incubation, read-out: GI50); 1110 nM in the assay on HOP-92 (Non-Small Cell Lung Cancer, HOP-92, 48 h drug incubation, read-out: GI50). Further, the GI50 in the assay on MALME-3M (Melanoma, MALME-3M, 48 h drug incubation, read-out: GI50) turned out to be 1200 nM; with SW-620 (Colon Cancer, SW-620, 48 h drug incubation, read-out: GI50), 318 nM; in the assay on U-251 (CNS Cancer, U-251, 48 h drug incubation, read-out: GI50), 234 nM; with SF-539 (CNS Cancer, SF-539, 48 h drug incubation, read-out: GI50) it was 1730 nM; in the assay with CCRF-CEM (Leukemia, 48 h drug incubation, read-out: GI50) it was 531 nM; with NCI-H226 (Non-Small Cell Lung Cancer, NCI-H226, 48 h drug incubation, read-out: GI50), 1340 nM. Moreover, the 50% growth inhibitory concentration (GI50) with SNB-19 (CNS Cancer, SNB-19, 48 h drug incubation, read-out: GI50) was found to be 1600 nM; in the assay on SK-MEL-28 (Melanoma, SK-MEL-28, 48 h drug incubation, read-out: GI50), 1580 nM; in the assay on OVCAR-4 (Ovarian Cancer, OVCAR-4, 48 h drug incubation, read-out: GI50), 711 nM; in the assay on NCI/ADR-RES (Ovarian Cancer, 48 h drug incubation, read-out: GI50) it was 1250 nM; with HCT-15 (Colon Cancer, HCT-15, 48 h drug incubation, read-out: GI50), 323 nM; with M14 (Melanoma, M14, 48 h drug incubation, read-out: GI50), 334 nM. The GI50 in the assay on Colon Cancer cell lines (average over Colon Cancer panel) stood at 442 nM; in the assay with HCC-2998 (Colon Cancer, HCC-2998, 48 h drug incubation, read-out: GI50) it was 1070 nM; with SK-MEL-2 (Melanoma, SK-MEL-2, 48 h drug incubation, read-out: GI50), 1560 nM; in assay [1] (average over Prostate Cancer panel), 382 nM; with Breast Cancer cell lines (average over Breast Cancer panel) it was 1390 nM.
Turning to `CCCC[Si](C)(C)COc1ccc(C(=O)N[C@@H](Cc2ccc(-c3ccccc3)cc2)C(=O)NC2CC(C)(C)NC(C)(C)C2)cc1` [GH1504, N^α-{4-[(butyldimethylsilyl)methoxy]-benzoyl}-N-(2,2,6,6-tetramethylpiperidin-4-yl)-(4-phenyl-L-phenylalaninamide)], the GI50 in the assay with NCI-H522 (NCI-H522, 48 h) is 1060 nM; with MDA-MB-231/ATCC (MDA-MB-231, 48 h), 880 nM; with RXF 393 (RXF 393, 48 h), 179 nM; in the assay on UACC-62 (UACC-62, 48 h), 1150 nM; in the assay on RPMI-8226 (RPMI-8226, 48 h), 1950 nM; in the assay on HOP-92 (HOP-92, 48 h), 1370 nM. Besides, the GI50 with MALME-3M (Malme-3M, 48 h) stood at 1750 nM; in the assay on SW-620 (SW-620, 48 h), 316 nM; in the assay with U-251 (U-251, 48 h), 238 nM; in the assay on SF-539 (SF-539, 48 h) it was 1770 nM; in the assay with CCRF-CEM (48 h), 1500 nM; in the assay on NCI-H226 (NCI-H226, 48 h), 183 nM. For the same compound, the GI50 in the assay with SNB-19 (SNB-19, 48 h) came to 1550 nM; in the assay on SK-MEL-28 (SK-MEL-28, 48 h), 1330 nM; with OVCAR-4 (OVCAR-4, 48 h) it was 521 nM; with NCI/ADR-RES (48 h), 1540 nM; with HCT-15 (HCT-15, 48 h), 309 nM; in the assay with M14 (M14, 48 h), 286 nM. Moreover, the GI50 in the assay with Colon Cancer cell lines was determined as 408 nM; in the assay on HCC-2998 (HCC 2998, 48 h), 1110 nM; with SK-MEL-2 (SK-MEL-2, 48 h), 944 nM; in [1] it was 834 nM; with Breast Cancer cell lines, 1170 nM.
